What was measured:
[1] = Electrochemical treatment of medium, removal rate of phenolic and furanic compounds; type: physicochemical; settings: 0.5 g/L added to medium; for Removal rate: wt %
Procedure: In order to measure the removal rate of phenolic and furanic compounds, p-coumaric acid, ferulic acid, syringaldehyde and vanillin were selected as phenolic compounds and furfural and 5-hydroxymethylfurfural were selected as furanic compounds. After adding 0.5 g/L of each of the selected 6 inhibitors to a medium, electric current was flown at each optimum oxidation voltage and then removal rate was measured.
(§1) A potentiostat (WonA Tech, WMPG 1000) was used for the electrochemical treatment of the medium. Graphite felt was used as an electrode. Specifically, the electrochemical treatment was conducted for by 5 hours at an oxidation peak voltage of each fermentation inhibitor (800 mV for coumaric acid and ferulic acid, 2 V for syringaldehyde and vanillin, 1.8 V for furfural and 5-hydroxyfurfural). Then, the fermentation inhibitors were removed using such methods as gravitational sedimentation, centrifugation, membrane separation, etc. The percentage of the removal rate is wt %.
(§2) After the culturing was completed, the concentrations of phenolic and furanic compounds, sugars and acetic acid were measured for each culture. The concentration was analyzed by liquid chromatography (Agilent model 1200). The phenolic compounds were analyzed using a diode array detector and a Zorbax eclipse XDB-C18 column (150×4.6 mm, 3.5 μm). The sugars and acetic acid were analyzed using a refractive index detector and an Aminex HPX-87H column (300×7.8 mm). The growth of the microorganisms was analyzed by measuring absorbance at 600 nm with a spectrophotometer (UVmini-1240, Shimadzu). The concentration of butyric acid and butanol was analyzed using a gas chromatography system (Agilent technology 6890N Network GC system) equipped with a flame ionized detector and an HP-INNOWax column (30 m×250 μm×0.25 μm, Agilent Technologies).

[2] = Cyclic voltammetry, oxidation peak voltage; type: physicochemical
Procedure: First, the optimum voltage for removing each phenolic compound through the electrochemical treatment was determined by cyclic voltammetry. […] In FIG. 1, the abscissa represents voltage (V) and the ordinate represents current (A). […] This means that each of the phenolic compounds is removed by oxidation at the intrinsic voltage.
as §1

[3] = test system: Clostridium beijerinckii; experiment: Production of butanol by Clostridium beijerinckii; type: cell-based; settings: 0.5 g/L in medium, after electrochemical treatment, FIG. 5
Text: (§3) As a butyric acid fermentation medium, a medium containing 20 g of glucose, 5 g of yeast extract, 0.2 g of magnesium sulfate, 0.01 g of manganese sulfate, 0.01 g of ferric sulfate, 0.01 g of sodium chloride, 0.5 g of monopotassium phosphate (KH2PO4), 0.5 g of dipotassium phosphate (K2HPO4) and 2 g of ammonium acetate per 1 L of the medium was used. As a butanol fermentation medium, a medium containing 20 g of glucose, 1 g of yeast extract, 0.2 g of magnesium sulfate, 0.01 g of manganese sulfate, 0.01 g of ferric sulfate, 0.01 g of sodium chloride, 0.5 g of monopotassium phosphate (KH2PO4), 0.5 g of dipotassium phosphate (K2HPO4) and 2 g of ammonium acetate per 1 L of the medium was used. Each medium was gas-substituted with argon gas and sterilized at 121° C. for 15 minutes before the experiment. […]
as §2, with “The concentration of butyric acid and butanol was analyzed using a gas chromatography system (Agilent technology 6890N Network GC system) equipped with a flame ionized detector and an HP-INNOWax column (30 m×250 μm×0.25 μm, Agilent Technologies).” left out

[4] = test system: Clostridium tyrobutyricum; experiment: Production of butyric acid by Clostridium tyrobutyricum; type: cell-based; settings: 0.5 g/L in medium, after electrochemical treatment at optimum voltage, FIG. 3
Text: as §3
as §2, with “The concentration of butyric acid and butanol was analyzed using a gas chromatography system (Agilent technology 6890N Network GC system) equipped with a flame ionized detector and an HP-INNOWax column (30 m×250 μm×0.25 μm, Agilent Technologies).” left out

[5] = test system: Clostridium tyrobutyricum; experiment: Cellular growth of Clostridium tyrobutyricum (absorbance at 600 nm); type: cell-based; settings: 0.5 g/L in medium, before electrochemical treatment, FIG. 2, read-out: inhibition of the growth of the microorganisms
Text: as §3
as §2, with “The concentration of butyric acid and butanol was analyzed using a gas chromatography system (Agilent technology 6890N Network GC system) equipped with a flame ionized detector and an HP-INNOWax column (30 m×250 μm×0.25 μm, Agilent Technologies).” left out

[6] = 1st treatment, 5 hours at oxidation peak voltage

Compound	Post-treatment concentration [1, 6] [g/L]	Removal rate [1, 6] [%]	Post-treatment concentration ([1]; 2nd treatment) [g/L]	Removal rate ([1]; 2nd treatment) [%]	oxidation peak voltage [2]	decrease in butanol production recovered by the electrochemical treatment [3] [%]	toxicity reduced by the electrochemical treatment [4] [%]	inhibition at 500 µg/mL [5] [%]
COc1cc(C=O)cc(OC)c1O [Syringaldehyde, syringaldehyde]	0.109	78.2	0.0265	94.7	2 V	–	–	–
O=Cc1ccco1 [Furfural, furfural]	0	100	0	100	1.8 V	–	–	–
COc1cc(/C=C/C(=O)O)ccc1O [Ferulic acid, ferulic acid]	0.3475	30.5	0.1155	76.9	800 mV	–	–	–
O=Cc1ccc(CO)o1 [HMF, 5-hydroxymethylfurfural]	0	100	0	100	1.8 V	–	–	–

Second part, led by results:

Post-treatment concentration [1, 6] [g/L]	Removal rate [1, 6] [%]	Post-treatment concentration ([1]; 2nd treatment) [g/L]	Removal rate ([1]; 2nd treatment) [%]	oxidation peak voltage [2]	Compound	decrease in butanol production recovered by the electrochemical treatment [3] [%]	toxicity reduced by the electrochemical treatment [4] [%]	inhibition at 500 µg/mL [5] [%]
0.251	49.8	0.089	82.2	2 V	COc1cc(C=O)ccc1O [Vanillin, vanillin]	–	–	–
0.25	50.0	0.11	78.0	800 mV	O=C(O)/C=C/c1ccc(O)cc1 [p-Coumaric acid, p-coumaric acid]	~100	~100	~100
